The values that follow come from patent publication US5036077A, “1-(benzylpiperidino)propan-2-ol derivatives, their preparation, their use as antimicrobial agents and the products in which they are present” (Sanofi, priority 1987, dated 1991).

Usually MBC stands for the lowest tested concentration that kills the bacteria rather than only halting them. The MFC is the lowest tested concentration that kills the fungus rather than only halting it.

Values after ≈ are worked out from the molar mass of the structure shown.

What all share (assay type): cell-based
The subject of experiment [1] is Staphylococcus aureus CNCM 53154. In words: Minimum bactericidal concentration, 30 min contact, strain 1. The conditions noted are these: Staphylococcus aureus CNCM 53154, contact time 30 minutes, solubilizing agent (water, TEG or acetone) given per product; for MBC: CNCM53154, 0.5 h, read-out: MBC, strain 1. The method, then: (§1) A bacterial inoculum is brought into contact with different dilutions of the test product for a limited time of 30 minutes. When the contact time has ended, an aliquot of the bacterial suspension/product mixture is deposited on the surface of a gelose culture medium containing an agent for neutralizing the antibacterial activity of the product. The bactericidal concentration chosen is the minimum concentration of the product which is necessary to prevent bacterial growth. This concentration is expressed in μg/ml.
1 - Staphylococcus aureus CNCM 53154;
(§2) The strains are maintained on Tryptic Soy Agar (TSA) marketed by Difco.
(§3) After 24 hours of culture at 37° C., the microbial growth is harvested with the aid of glass beads and 10 ml of diluent containing 1 g of tryptone and 8.5 g of sodium chloride in 1000 ml of distilled water. The suspension formed is shaken and the percentage transmission of light at 620 nm is measured on a spectrophotometer:
(§4) The bacterial inoculum corresponds to a 1/20 dilution of this bacterial suspension.
(§5) Plates containing cups receive different dilutions of the test product. These dilutions of the test product are brought into contact with the different bacterial suspensions using a multiple-site inoculator. After a contact time of 30 minutes, aliquots are transferred by means of this inoculator to the surface of a gelose medium (TSA) placed in petri dishes and containing an agent for neutralizing the activity, namely 20 g of lubrol W, 2.5 g of Tween 80, 2.5 g of sodium thiosulfate and 1% of egg yolk in 1000 ml of TSA (Difco). A reference for the efficacy of the neutralizing agent is prepared for each test product by depositing an aliquot of the dilution of the test product on the surface of the culture medium. After drying, the corresponding inoculum is deposited in the same place. A reference inoculum is prepared on a gelose medium with and without neutralizing agent. The results are read off after 48 hours of incubation at 37° C.
(§6) They indicate the minimum bactericidal concentrations (MBC) for strains 1, 2, 3 and 4 and the minimum fungicidal concentrations (MFC) for strain 5.

The test system of experiment [2] is Streptococcus faecalis CNCM 5855. Briefly: Minimum bactericidal concentration, 30 min contact, strain 2. Particulars: Streptococcus faecalis CNCM 5855, contact time 30 minutes, solubilizing agent given per product; for MBC: Enterococcus faecalis, CNCM5855, 0.5 h, read-out: MBC, strain 2. As for the experimental part:
as §1
2 - Streptococcus faecalis CNCM 5855;
as §2, §3, §4, §5, §6

Experiment [3] has as its system Pseudomonas aeruginosa CNCM A22. Briefly: Minimum bactericidal concentration, 30 min contact, strain 3. The conditions noted are these: CNCMA22, 0.5 h; Pseudomonas aeruginosa CNCM A22; contact time 30 minutes; solubilizing agent given per product; read-out: MBC, strain 3. As for the experimental part:
as §1
3 - Pseudomonas aeruginosa CNCM A22;
as §2, §3, §4, §5, §6

Experiment [4] has as its system Escherichia coli CNCM 54127. Briefly: Minimum bactericidal concentration, 30 min contact, strain 4. Particulars: CNCM54127, 0.5 h; Escherichia coli CNCM 54127; contact time 30 minutes; solubilizing agent given per product; read-out: MBC, strain 4. As for the experimental part: as §1
4 - Escherichia coli CNCM 54127.
as §2, §3, §4, §5, §6

For experiment [5], the system named is Candida albicans CNCM 1180. In words: Minimum fungicidal concentration, strain 5. Particulars: Candida albicans CNCM 1180, contact time 30 minutes, solubilizing agent given per product; for MFC: CNCM1180, 0.5 h, read-out: MFC, strain 5. As for the experimental part: as §1, §5
The antifungal activity of the products according to the invention was also determined using the method described above. The representative strain of yeast selected for the study was Candida albicans CNCM 1180 (strain 5).
This is maintained on a gelose medium of Sabouraud Dextrose Agar, marketed by Difco. The technique is identical to that described for studying the antibacterial activity. After 48 hours of culture at 37° C., the microbial growth is harvested with the aid of glass beads and 5 ml of diluent containing 1 g of tryptone and 8.5 g of sodium chloride in 1000 ml of distilled water; a further 5 ml of the diluent are then added. In a spectrophotometer, this suspension gives a 2 to 3% transmission of light at 620 nm. The inoculum corresponds to a 1/10 dilution of this microbial suspension. A 1/100 dilution of this suspension, observed between a microscope slide and cover slip through a lens of magnification 40, should show 10 cells per field, which corresponds to 1 000 000 yeasts per ml.
as §6

With `Cl.OC(CSc1ccc(Br)cc1)CN1CCC(Cc2ccccc2)CC1` (stereo not shown) [SR 44444 A, 1-(4-Benzylpiperidino)-3-(4-bromophenylthio)propan-2-ol hydrochloride], the minimum bactericidal concentration (MBC) in experiment [1], in experiment [2], in experiment [3] and in experiment [4] was 50 µg/mL in each case.
Turning to `Cl.OC(COc1ccc(Cl)cc1Cc1ccccc1)CN1CCC(Cc2ccccc2)CC1` (stereo not shown) [SR 44719 A, 3-(2-Benzyl-4-chlorophenoxy)-1-(4-benzylpiperidino)propan-2-ol hydrochloride], the MBC is 10 µg/mL in experiment [1], 10 µg/mL in experiment [2], 10 µg/mL in experiment [3] and 5 µg/mL in experiment [4]. The MFC in experiment [5] came out at 50 µg/mL.
Take `OC(COc1ccc(Cl)cc1Cl)CN1CCC(Cc2ccccc2)CC1` (racemic) [SR 44333 B, 1-(4-Benzylpiperidino)-3-(2,4-dichlorophenoxy)propan-2-ol methanesulfonate]: the MBC in experiment [1], in experiment [2], in experiment [3] and in experiment [4] was 50 µg/mL each time. Also, the minimum fungicidal concentration (MFC) in experiment [5] was 50 µg/mL.
Take `OC(COc1ccc(Cl)c(Cl)c1)CN1CCC(Cc2ccccc2)CC1` (racemic) [SR 45551 A]: the minimal bactericidal concentration (MBC) in experiment [1] was above 200 µg/mL; in experiment [2], 50 µg/mL (≈ 127 µM); in experiment [3] it was 50 µg/mL (≈ 127 µM); in experiment [4] it was 50 µg/mL (≈ 127 µM). Moreover, the MFC in experiment [5] was above 200 µg/mL.
For `OC(CSc1cccc(Br)c1)CN1CCC(Cc2ccccc2)CC1` (racemic) [SR 45204 A], the MBC in experiment [1] was above 200 µg/mL; in experiment [2], above 200 µg/mL; in experiment [3], 50 µg/mL (≈ 119 µM); in experiment [4], 50 µg/mL (≈ 119 µM). The MFC in experiment [5] was above 200 µg/mL.
For the compound `OC(COc1ccc(-c2ccccc2)cc1)CN1CCC(Cc2ccccc2)CC1` (racemic) [SR 44715 A], the MBC in experiment [1], in experiment [2], in experiment [3] and in experiment [4] was 50 µg/mL (≈ 125 µM) in each case. Besides, the MFC in experiment [5] was 200 µg/mL (≈ 498 µM).
For `OC(COc1ccc2ccccc2c1)CN1CCC(Cc2ccccc2)CC1` (racemic) [SR 44807 A], the MBC in experiment [1] worked out at 1000 µg/mL (≈ 2660 µM); in experiment [2] it was 1000 µg/mL (≈ 2660 µM); in experiment [3] it was 200 µg/mL (≈ 533 µM); in experiment [4], 200 µg/mL (≈ 533 µM). In experiment [5], the MFC came out at 1000 µg/mL (≈ 2660 µM).
Regarding `OC(COc1ccc(F)cc1F)CN1CCC(Cc2ccccc2)CC1` (racemic) [SR 44971 A], the MBC in experiment [1], in experiment [2], in experiment [3] and in experiment [4] was 1000 µg/mL (≈ 2770 µM) throughout. The MFC in experiment [5] amounted to 1000 µg/mL (≈ 2770 µM).
For the compound `Cl.OC(COc1ccc2ccccc2c1Br)CN1CCC(Cc2ccccc2)CC1` (stereo not shown) [SR 44716 A, 1-(4-Benzylpiperidino)-3-(1-bromonaphth-2-yloxy)propan-2-ol hydrochloride], the MBC in experiment [1] was determined as 50 µg/mL; in experiment [2] it was 50 µg/mL; in experiment [3] it was 10 µg/mL; in experiment [4] it was 10 µg/mL. Moreover, the MFC in experiment [5] is 50 µg/mL.
For the compound `OC(COc1ccccc1-c1ccccc1)CN1CCC(Cc2ccccc2)CC1` (racemic) [SR 44676 A], the MBC stood at 200 µg/mL (≈ 498 µM) in experiment [1], 50 µg/mL (≈ 125 µM) in experiment [2], 10 µg/mL (≈ 24.9 µM) in experiment [3] and 10 µg/mL (≈ 24.9 µM) in experiment [4]. The minimal fungicidal concentration (MFC) in experiment [5] came to 50 µg/mL (≈ 125 µM).
Consider `Cl.OC(COc1ccc(Cl)cc1Cl)CN1CCC(Cc2ccccc2)CC1` (stereo not shown) [SR 44333 A, 1-(4-Benzylpiperidino)-3-(2,4-dichlorophenoxy)propan-2-ol hydrochloride], for which the MBC in experiment [1] turned out to be 100 µg/mL; in experiment [2], 100 µg/mL; in experiment [3], 50 µg/mL; in experiment [4], 50 µg/mL.
Consider `OC(COc1cc(Br)c2ccccc2c1)CN1CCC(Cc2ccccc2)CC1` (racemic) [SR 44674 A], for which the minimal bactericidal concentration (MBC) in experiment [1], in experiment [2], in experiment [3] and in experiment [4] was 10 µg/mL (≈ 22 µM) throughout. Further, the MFC in experiment [5] worked out at 200 µg/mL (≈ 440 µM).
Turning to `CC(C)(C)c1ccc(OCC(O)CN2CCC(Cc3ccccc3)CC2)cc1` (racemic) [SR 44648 A], the MBC is 200 µg/mL (≈ 524 µM) in experiment [1], 200 µg/mL (≈ 524 µM) in experiment [2], 50 µg/mL (≈ 131 µM) in experiment [3] and 50 µg/mL (≈ 131 µM) in experiment [4]. Besides, in experiment [5], the MFC came out at 200 µg/mL (≈ 524 µM).
For the compound `OC(COc1cccc2ccccc12)CN1CCC(Cc2ccc(Cl)cc2)CC1` (racemic) [SR 44999 A], the minimal bactericidal concentration (MBC) in experiment [1] was 50 µg/mL (≈ 122 µM); in experiment [2], at most 10 µg/mL; in experiment [3], at most 10 µg/mL; in experiment [4], at most 10 µg/mL. Further, the MFC in experiment [5] is at most 10 µg/mL.
For the compound `OC(CSc1ccc(Cl)c(Cl)c1)CN1CCC(Cc2ccccc2)CC1` (racemic) [SR 44473 A], the minimal bactericidal concentration (MBC) was found to be 1000 µg/mL (≈ 2440 µM) in experiment [1], 50 µg/mL (≈ 122 µM) in experiment [2], 50 µg/mL (≈ 122 µM) in experiment [3] and 50 µg/mL (≈ 122 µM) in experiment [4]. Further, the MFC in experiment [5] turned out to be 50 µg/mL (≈ 122 µM).
Consider `OC(CSc1ccc(Br)cc1)CN1CCC(Cc2ccc(Cl)cc2)CC1` (racemic) [SR 45076 A], for which the MBC in experiment [1] is 50 µg/mL (≈ 110 µM); in experiment [2], 10 µg/mL (≈ 22 µM); in experiment [3], 50 µg/mL (≈ 110 µM); in experiment [4] it was 10 µg/mL (≈ 22 µM). The MFC in experiment [5] is 50 µg/mL (≈ 110 µM).
`OC(COc1ccc(Cl)cc1)CN1CCC(Cc2ccccc2)CC1` (racemic) [SR 44334 A]: the MBC in experiment [1] came out at 500 µg/mL (≈ 1390 µM); in experiment [2], 100 µg/mL (≈ 278 µM); in experiment [3], 100 µg/mL (≈ 278 µM); in experiment [4] it was 100 µg/mL (≈ 278 µM).
With `OC(CSc1ccc(Cl)c(Cl)c1)CN1CCCC(Cc2ccccc2)C1` (single isomer, unassigned) [SR 45237 A], the “MBC, strain 1” value in experiment [1] was above 200 µg/mL. For the same compound, in experiment [2], the “MBC, strain 2” value is 50 µg/mL (≈ 122 µM). The “MFC, strain 5” value in experiment [5] is above 200 µg/mL.
Turning to `OC(CSc1ccc(Cl)c(Cl)c1)CN1CCCC(Cc2ccccc2)C1` (single isomer, unassigned) [SR 45236 A], the MBC was above 200 µg/mL in experiment [1], 50 µg/mL (≈ 122 µM) in experiment [2], 50 µg/mL (≈ 122 µM) in experiment [3] and 50 µg/mL (≈ 122 µM) in experiment [4]. The MFC in experiment [5] was above 200 µg/mL.
With `OC(COc1cc(Cl)ccc1Oc1ccc(Cl)cc1Cl)CN1CCC(Cc2ccccc2)CC1` (racemic) [SR 44641 A], the MBC was 50 µg/mL (≈ 96 µM) in experiment [1], 10 µg/mL (≈ 19.2 µM) in experiment [2], 10 µg/mL (≈ 19.2 µM) in experiment [3] and 5 µg/mL (≈ 9.6 µM) in experiment [4]. Moreover, in experiment [5], the MFC is 50 µg/mL (≈ 96 µM).
With `OC(COc1ccc(Cl)c(Cl)c1)CN1CCC(Cc2ccc(Cl)cc2)CC1` (racemic) [SR 45553 A], the MBC in experiment [1] was 10 µg/mL (≈ 23.3 µM); in experiment [2], 50 µg/mL (≈ 117 µM); in experiment [3], 50 µg/mL (≈ 117 µM); in experiment [4], 10 µg/mL (≈ 23.3 µM). The MFC in experiment [5] is 50 µg/mL (≈ 117 µM).
`OC(COc1ccc(Br)cc1)CN1CCC(Cc2ccccc2)CC1` (racemic) [SR 44251 A]: the MBC in experiment [1], in experiment [2], in experiment [3] and in experiment [4] was 100 µg/mL (≈ 247 µM) in each case.
As to `OC(COc1ccc(Cl)cc1Cc1ccccc1)CN1CCC(Cc2ccccc2)CC1` (racemic) [SR 44719 B], the MBC is 10 µg/mL (≈ 22.2 µM) in experiment [1], 5 µg/mL (≈ 11.1 µM) in experiment [2], 10 µg/mL (≈ 22.2 µM) in experiment [3] and 5 µg/mL (≈ 11.1 µM) in experiment [4]. The MFC in experiment [5] was 10 µg/mL (≈ 22.2 µM).
